Measurements as given in US8034937B2, “Azaspiro derivatives” (Hoffmann-La Roche Inc., priority 2006, dated 2011).
Structures can show the parent of a compound that is named as a salt.

Biological target: T1, human V1a receptor (Homo sapiens, UniProt P37288)
T1 construct: expressed in transfected cells; host or cells: HEK293 cells, transiently transfected; membranes prepared
Test: human V1a receptor binding (3H-Vasopressin SPA, HEK293 membranes)
Settings: 3H-Vasopressin displacement, membranes of HEK293 cells transiently transfected with human V1a; Ki by Cheng-Prussoff; read-out: pKi (hV1a) (converted)
Protocol: The human V1a receptor was cloned by RT-PCR from total human liver RNA. The coding sequence was subcloned in an expression vector after sequencing to confirm the identity of the amplified sequence. […] Cell membranes were prepared from HEK293 cells transiently transfected with the expression vector and grown in 20 liter fermenters with the following protocol.
50 g of cells were resuspended in 30 ml freshly prepared ice cold Lysis buffer (50 mM HEPES, 1 mM EDTA, 10 mM MgCl2 adjusted to pH=7.4+complete cocktail of protease inhibitor (Roche Diagnostics)); homogenized with Polytron for 1 min, and sonicated on ice for 2×2 minutes at 80% intensity (Vibracell sonicator). The preparation was centrifuged 20 min at 500 g at 4° C., the pellet was discarded and the supernatant centrifuged 1 hour at 43,000 g at 4° C. (19,000 rpm). The pellet was resuspended in 12.5 ml Lysis buffer+12.5 ml Sucrose 20% and homogenized using a Polytron for 1-2 min. The protein concentration was determined by the Bradford method and aliquots were stored at −80° C. until use. For binding studies 60 mg Yttrium silicate SPA beads (Amersham) were mixed with an aliquot of membrane in binding buffer (50 mM Tris, 120 mM NaCl, 5 mM KCl, 2 mM CaCl2, 10 mM MgCl2) for 15 minutes with mixing. 50 ul of bead/membrane mixture was then added to each well of a 96 well plate, followed by 50 ul of 4 nM 3H-Vasopressin (American Radiolabeled Chemicals). For total binding measurement 100 ul of binding buffer were added to the respective wells, for non-specific binding 100 ul of 8.4 mM cold vasopressin and for compound testing 100 ul of a serial dilution of each compound in 2% DMSO. The plate was incubated 1 h at room temperature, centrifuged 1 min at 1000 g and counted on a Packard Top-Count. Non-specific binding counts wee subtracted from each well and data was normalized to the maximum specific binding set at 100%. To calculate an IC 50 the curve was fitted using a non-linear regression model (XLfit), and the Ki was calculated using the Cheng-Prussoff equation.

T1 sequence (P37288 whole entry): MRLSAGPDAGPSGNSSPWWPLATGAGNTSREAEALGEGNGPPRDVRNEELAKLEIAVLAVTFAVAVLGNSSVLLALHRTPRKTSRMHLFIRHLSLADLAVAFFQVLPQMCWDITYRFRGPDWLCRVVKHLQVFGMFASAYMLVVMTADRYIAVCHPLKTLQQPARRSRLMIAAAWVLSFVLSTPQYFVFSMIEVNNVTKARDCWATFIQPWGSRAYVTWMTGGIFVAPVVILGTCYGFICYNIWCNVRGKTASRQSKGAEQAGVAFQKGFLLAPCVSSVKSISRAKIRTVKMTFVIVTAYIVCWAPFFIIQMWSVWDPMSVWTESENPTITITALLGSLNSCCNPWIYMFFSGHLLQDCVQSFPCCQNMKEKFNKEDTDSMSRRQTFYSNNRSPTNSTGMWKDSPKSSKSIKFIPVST

SMILES | Ki [nM]
O=C(c1cn(C[C@@H]2CCCN2)c2cc(Cl)ccc12)N1CCC2(CC1)OCc1ncccc12 [Compound 3, 1′-({6-Chloro-1-[(2S)-pyrrolidin-2-ylmethyl]-1H-indol-3-yl}carbonyl)-7H-spiro[furo[3,4-b]pyridine-5,4′-piperidine]dihydrochloride] | 25.1
CN1CCC[C@H]1Cn1cc(C(=O)N2CCC3(CC2)OCc2ncccc23)c2ccc(Cl)cc21 [Compound 4, 1′-[(6-Chloro-1-{[(2S)-1-methylpyrrolidin-2-yl]methyl}-1H-indol-3-yl)carbonyl]-7H-spiro[furo[3,4-b]pyridine-5,4′-piperidine]] | 1.55
O=C(c1cn(Cc2cc(F)cc(F)c2)c2cc(Cl)ccc12)N1CCC2(CC1)OCc1ncccc12 [Compound 5, 1′-{[6-Chloro-1-(3,5-difluorobenzyl)-1H-indol-3-yl]carbonyl}-7H-spiro[furo[3,4-b]pyridine-5,4′-piperidine]] | 4.37
O=C(c1c[nH]c2cc(Cl)ccc12)N1CCC2(CC1)OCc1cccnc12 [Compound 6, 1′-[(6-Chloro-1H-indol-3-yl)carbonyl]-5H-spiro[furo[3,4-b]pyridine-7,4′-piperidine]] | 5.25
CC(C)(C)OC(=O)N1CCC[C@H]1Cn1cc(C(=O)N2CCC3(CC2)OCc2cccnc23)c2ccc(Cl)cc21 [Compound 7, tert-Butyl (2S)-2-{[6-chloro-3-(1′H,5H-spiro[furo[3,4-b]pyridine-7,4′-piperidin]-1′-ylcarbonyl)-1H-indol-1-yl]methyl}pyrrolidine-1-carboxylate] | 22.9
O=C(c1cn(C[C@@H]2CCCN2)c2cc(Cl)ccc12)N1CCC2(CC1)OCc1cccnc12 [Compound 8, 1′-({6-Chloro-1-[(2S)-pyrrolidin-2-ylmethyl]-1H-indol-3-yl}carbonyl)-5H-spiro[furo[3,4-b]pyridine-7,4′-piperidine]dihydrochloride] | 3.31
CN1CCC[C@H]1Cn1cc(C(=O)N2CCC3(CC2)OCc2cccnc23)c2ccc(Cl)cc21 [Compound 9, 1′-[(6-Chloro-1-1{[(2S)-1-methylpyrrolidin-2-yl]methyl}-1H-indol-3-yl)carbonyl]-5H-spiro[furo[3,4-b]pyridine-7,4′-piperidine]] | 1
O=C(c1c[nH]c2cc(Cl)ccc12)N1CCC2(CC1)OCc1ccncc12 [Compound 10, 1′-[(6-Chloro-1H-indol-3-yl)carbonyl]-1H-spiro[furo[3,4-c]pyridine-3,4′-piperidine]] | 8.71
CC(C)(C)OC(=O)N1CCC[C@H]1Cn1cc(C(=O)N2CCC3(CC2)OCc2ccncc23)c2ccc(Cl)cc21 [Compound 11, tert-Butyl (2S)-2-{[6-chloro-3-(1H, 1′H-spiro[furo[3,4-c]pyridine-3,4′-piperidin]-1′-ylcarbonyl)-1H-indol-1-yl]methyl}pyrrolidine-1-carboxylate] | 23.4
O=C(c1cn(C[C@@H]2CCCN2)c2cc(Cl)ccc12)N1CCC2(CC1)OCc1ccncc12 [Compound 12, 1′-({6-Chloro-1-[(2S)-pyrrolidin-2-ylmethyl]-1H-indol-3-yl}carbonyl)-1H-spiro[furo[3,4-c]pyridine-3,4′-piperidine]dihydrochloride] | 4.57
CN1CCC[C@H]1Cn1cc(C(=O)N2CCC3(CC2)OCc2ccncc23)c2ccc(Cl)cc21 [Compound 13, 1′-[(6-Chloro-1-{[(2S)-1-methylpyrrolidin-2-yl]methyl}-1H-indol-3-yl)carbonyl]-1H-spiro[furo[3,4-c]pyridine-3,4′-piperidine]] | 1.1
O=C(c1cn(Cc2cc(F)cc(F)c2)c2cc(Cl)ccc12)N1CCC2(CC1)OCc1cccnc12 [Compound 14, 1′-{[6-Chloro-1-(3,5-difluorobenzyl)-1H-indol-3-yl]carbonyl}-5H-spiro[furo[3,4-b]pyridine-7,4′-piperidine]] | 4.27
